From US11324825B2, “Synthetic retinoids (in cell modulation)” (University of Durham, priority 2016, dated 2022) come the findings set out here.

The EC50 is the midpoint of the concentration-response curve. One may read the melting point as the temperature, or range, at which the solid turns liquid.

Data set [1] deals with HaCaT cells. The data set is described as follows: Dose response of cell death after 10 s UV (time lapse imaging). The following applies: Homo sapiens, light or radiation study, 10 seconds of UV (DAPI filter, 20× objective), 24 hours after initial irradiation, read-out: EC50 based on average viable fraction of the cellular population. Here is the method: The speed of death was tested at a number of concentrations in order to determine an estimate for the EC50 (half maximal effective concentration) value. Morphological changes were recorded using time lapse imaging at 5 minute intervals. The time taken between 10 s of UV light treatment and the first sign of damage to the cell membranes was recorded. Each cell in the field of view was treated as an individual data point, before taking an average of the time for each concentration.
Referring to FIG. 12: The dose-dependent response of HaCaT cells treated with DC324 and DC473 and 10 seconds of UV. UV exposure was administered through the DAPI filter and a 20× objective lens, phase 0.

For data set [2], the system named is HaCaT cells. The data set is described as follows: Cell death on Zeiss 880 confocal, 405 nm laser light. It counts as cell-based, human. The following applies: 10 μM; for membrane blebbing on repeated exposures to 405 nm laser: up to 47 exposures. Here is the method: One day prior to imaging, HaCaT cells (4000 approx.) were seeded into each well of an 8 well glass slide. Cells were allowed to incubate overnight in serum containing media. One hour before imaging the normal media was replaced with compound containing media, 1 mL per well. The cells were imaged in a 37° C. heated chamber using the Zeiss LSM 880 with Airyscan confocal laser scanning microscope. Note: Cells were imaged in DMEM media which contains phenol red.
Images of 10 μM compound treated cells were taken every twenty minutes and at each time point a treatment of 405 nm light at 50% laser strength was applied.

For data set [3], the system named is HaCaT cells. Description: Cell death on Zeiss Live Cell Observer after UV light. It counts as cell-based. Here is the method: (§1) One day prior to imaging, HaCaT or J2 cells (20,000 approx.) were seeded into each well of a 6 well or 24 well plastic plate. Cells were allowed to incubate overnight in serum containing media. One to four hours before imaging the normal media was replaced with compound containing media, 1 mL per well. The cells were imaged in a 37° C. heated chamber and supplied with 5% CO2. Zeiss Live Cell Observer microscope: OSRAM 1×HBO 103 W/2 100 Watt Mercury Bulb, DAPI Excitation filter=335-385 nm, DAPI Emission filter=420-470 nm. Note: Cells were imaged in DMEM media which contains phenol red.

In data set [4] the test system is HaCaT cells. Description: ROS staining (Superoxide Detection Reagent, CellRox). It counts as cell-based, human. The following applies: for superoxide stain fluorescence after UV exposure: UV treatment, rhodamine filter, 60-260 seconds after UV. The procedure: One day prior to imaging, HaCaT cells (20,000 approx) were seeded into each well of a 24 well plastic plate. Cells were allowed to incubate overnight in serum containing media. Three hours prior to imaging, the media in each well was replaced with fresh serum containing media which included a 1:500 dilution of Superoxide Detection Reagent, CellRox. […] The cells were incubated with the ROS stain at 37° C. for one hour. An hour and a half before imaging, the media in the negative control well was replaced with N-acetyl-L-cysteine diluted in serum containing media (1 mL, 10 mM). One hour before imaging the media in all but one of the other wells was replaced with compound containing media, 1 mL per well. Thirty minutes prior to imaging, the media in the positive control well was replaced with pyocyanine diluted in serum containing media (1 mL, 500 μM). Pyocyanine induces ROS within 20-30 minutes. The cells were imaged in a heated chamber and supplied with 5% CO2. The cells were imaged in a 37° C. heated chamber using the Zeiss LSM 880 with Airyscan confocal laser scanning microscope. Cells were irradiated with 405 nm laser to activate compounds and ROS dye was excited with 633 nm laser Note: Cells were imaged in DMEM media which contains phenol red.
In order to gain more insight into the mode of action leading to cell death, we examined the photo-initiated ROS production using the redox reactive dye, CellRox, which fluoresces in response to oxidation by reactive oxygen species.

Data set [5] deals with J2 cells, a mouse fibroblast cell line. Description: Cell death on Zeiss Live Cell Observer after UV light, J2 cells. It counts as cell-based. The procedure: as §1
Referring to FIG. 6: Cell death observations were consistent across different cell lines. […] A 10× objective lens at Phase 0 was used.

A short description of data set [6]: Absorbance and emission spectra. It counts as physicochemical. The following applies: in chloroform. The procedure: FIG. 18 illustrates the combined normalised absorbance spectra of DC324, DC473 and DC474 in CHCl3 (10 μM);
FIG. 19 illustrates the combined normalised emission spectra of DC324, DC473 and DC474 in CHCl3 (100 nM) with excitation at their respective maximal absorption wavelengths;

`CC(C)N1CCC(C)(C)c2cc(C#Cc3ccc(/C=C/C(=O)O)cc3)ccc21` [DC324, (2E)-3-(4-2-[4,4-Dimethyl-1-(propan-2-yl)-1,2,3,4-tetrahydroquinolin-6-yl]ethynylphenyl)prop-2-enoic Acid]: the EC50 in the data set with HaCaT cells [1] stood at 0.2 µM. For the same compound, in the data set on HaCaT cells [2] (405 nm laser at 50% strength), the “number of exposures until first bleb appeared” value came to 21 exposures, the “type of cell death induced by 405 nm light” value is recorded as “more characteristic of apoptosis than the cell death caused by UV light” and the “membrane blebbing on repeated exposures to 405 nm laser” value is reported as “Membrane blebbing was induced”. Also, in the data set on HaCaT cells [2] (405 nm light at 50% laser strength every twenty minutes), the “cell death under 405 nm laser light versus DMSO control” value was “significantly different to the DMSO control”. For the same compound, in the data set on HaCaT cells [3] (10 μM, no UV exposure), the “cells from the same well away from the site of UV exposure” value was “healthy cells”. In addition, the “time to necrosis after UV treatment” value in the data set with HaCaT cells [3] (10 μM, single 10 s treatment with UV light, 10× objective lens, Phase 0) is given as “within two hours”. For the same compound, in the data set on HaCaT cells [3] (UV light), the “membrane blebbing and cell death following exposure to UV light (initial screening)” value was “induced membrane blebbing and cell death”; the “speed of cell death induction compared with other compounds” value is “most rapid inducer of cell death”. For the same compound, in the data set on HaCaT cells [4] (405 nm light, before vs after irradiation), the “CellRox (ROS-stimulated) relative fluorescence after irradiation” value is recorded as “steady increase”. The “superoxide stain fluorescence after UV exposure” value with HaCaT cells [4] is reported as “indicates superoxide production”. The “UV untreated cells in the compound, same well as treated area” value in data set [5] (no UV) is “appear healthy after 26 hours”. Moreover, the “membrane blebbing after a single UV treatment” value in data set [5] (single UV treatment, 10× objective lens, Phase 0) is listed as “displayed membrane blebbing within two hours”. In addition, in data set [6], the Absorbance wavelength max is 400 max nm and the Absorbance wavelength range is on record as 275-475 range nm. Also, in data set [6] (excitation at 400 nm), the Emission wavelength max is on record as 560 max nm and the Emission wavelength range was 450-700 range nm.

In the case of `CC1(C)CCC(C)(C)c2cc(C#Cc3ccc(C(=O)O)cc3)ccc21` [EC23, reference compound], the “membrane blebbing and cell death following exposure to UV light (initial screening)” value in the data set on HaCaT cells [3] (UV light) was “no membrane blebbing was observed”.

Consider `C#CCN1CCC(C)(C)c2cc(C#Cc3ccc(/C=C/C(=O)OC)cc3)ccc21` [DC473], for which, in the data set on HaCaT cells [1], the EC50 was 0.18 µM. In addition, the “membrane blebbing and cell death following exposure to UV light (initial screening)” value in the data set on HaCaT cells [3] (UV light) is “induced membrane blebbing and cell death”. Besides, in data set [6], the Absorbance wavelength max was determined as 380 max nm and the Absorbance wavelength range is reported as 275-450 range nm. Moreover, in data set [6] (excitation at 380 nm), the Emission wavelength max is on record as 520 max nm and the Emission wavelength range was 440-680 range nm.

On to `CC1=C(/C=C/C(C)=C/C=C/C(C)=C/C(=O)O)C(C)(C)CCC1` [ATRA, All Trans-Retinoic Acid, reference compound], for which the “membrane blebbing on repeated exposures to 405 nm laser” value in the data set with HaCaT cells [2] (405 nm laser at 50% strength) was “No membrane blebbing was observed”. In addition, the “membrane blebbing and cell death following exposure to UV light (initial screening)” value with HaCaT cells [3] (UV light) is listed as “no membrane blebbing was observed”. For the same compound, the “superoxide stain fluorescence after UV exposure” value with HaCaT cells [4] is “produced an increased level of fluorescence post exposure to UV”.

In the case of `C#CCN1CCC(C)(C)c2cc(C#Cc3ccc(/C=C/C(=O)O)cc3)ccc21` [DC474, (2E)-3-(4-{2-[4,4-Dimethyl-1-(prop-2-yn-1-yl)-1,2,3,4-tetrahydroquinolin-6-yl]ethynyl}phenyl)prop-2-enoic Acid], the melting point is 193 to 195 °C (dec.). In data set [6], the Absorbance wavelength max amounted to 380 max nm and the Absorbance wavelength range is 275-450 range nm. Besides, in data set [6] (excitation at 300 nm), the Emission wavelength max is given as 540 max nm and the Emission wavelength range was 450-700 range nm.
